Where two headings read alike, the source gives them in different places.
Key:
[1] = test system: P. falciparum 3D7 parasites; test: P. falciparum growth inhibition assay, 1-cycle (72 h treatment), SYBR DNA staining (library screen at 2 μg/mL and dose-response); assay type: cell-based, Plasmodium falciparum; settings: for activity at 2 µg/mL: Plasmodium falciparum, 3D7, library screen at 2 μg/mL
[2] = test system: P. falciparum 3D7 parasites; test: P. falciparum growth inhibition assay, 2-cycle (120 h treatment), delayed-death screen and dose-response; assay type: cell-based, Plasmodium falciparum; settings: for activity at 2 µg/mL: Plasmodium falciparum, 3D7, library screen at 2 μg/mL
[3] = test system: T. gondii RH strain (RH-Tub-eYFP) tachyzoites; test: microbe, parasite or virus in culture; assay type: cell-based, Toxoplasma gondii; settings: 72 h; for Tg_72h_%Growth_Rep1 / Tg_72h_%Growth_Rep2: T. gondii; for percent parasite growth at 2 µg/mL: Toxoplasma gondii, library screen at 2 μg/mL
[4] = P. falciparum, 72 h, screen at 2 μg/mL, replicate 1
[5] = P. falciparum, 72 h, screen at 2 μg/mL, replicate 2
[6] = P. falciparum, 120 h, screen at 2 μg/mL, replicate 1
[7] = P. falciparum, 120 h, screen at 2 μg/mL, replicate 2
[8] = P. falciparum 3D7, 72 h, parasite screen at 2 μg/mL, % growth, replicate 1
[9] = P. falciparum 3D7, 72 h, parasite screen at 2 μg/mL, % growth, replicate 2
[10] = P. falciparum 3D7, 120 h, parasite screen at 2 μg/mL, % growth, replicate 1
[11] = P. falciparum 3D7, 120 h, parasite screen at 2 μg/mL, % growth, replicate 2
[12] = parasite screen at 2 μg/mL, % growth, replicate 1
[13] = parasite screen at 2 μg/mL, % growth, replicate 2
[14] = 72 h, % growth, replicate 1, read-out: Pf_72h_%Growth_Rep1
[15] = 72 h, % growth, replicate 2, read-out: Pf_72h_%Growth_Rep2
[16] = 120 h, % growth, replicate 1, read-out: Pf_120h_%Growth_Rep1
[17] = 120 h, % growth, replicate 2, read-out: Pf_120h_%Growth_Rep2
[18] = % growth, replicate 1, read-out: Tg_72h_%Growth_Rep1
[19] = % growth, replicate 2, read-out: Tg_72h_%Growth_Rep2

SMILES	Pf_72h_%Growth_Rep1 [1, 4]	Pf_72h_%Growth_Rep2 [1, 5]	Pf_120h_%Growth_Rep1 [2, 6]	Pf_120h_%Growth_Rep2 [2, 7]	Tg_72h_%Growth_Rep1 ([3]; screen at 2 μg/mL, replicate 1)	Tg_72h_%Growth_Rep2 ([3]; screen at 2 μg/mL, replicate 2)	activity at 2 µg/mL [1, 14]	activity at 2 µg/mL [1, 15]	activity at 2 µg/mL [2, 16]	activity at 2 µg/mL [2, 17]	percent parasite growth at 2 µg/mL [3, 18]	percent parasite growth at 2 µg/mL [3, 19]	further results
CC(C)(O)[C@H]1O[C@H]2CC[C@@]3(C)[C@@](O)(CC[C@H]4Cc5c([nH]c6ccccc56)[C@@]43C)[C@]23O[C@@H]3[C@@H]1O [Terpendole I]	66.72%	80.63%	141.22%	87.55%	89.20%	95.24%							
CC(C)[C@@H]1NC(=O)[C@H](Cc2ccccc2)NC1=O [Cyclo(L-Phe-L-Val)]	85.66%	90.47%	67.70%	97.99%	132.95%	103.43%							
C=C/C(C)=C/[C@H](C)C(=O)C[C@H](O)CC1CC(=O)NC(=O)C1 [Streptimidone]													Pf_72h_%Growth_Rep1 ([1]; P. falciparum, 72 h, parasite screen 2 μg/mL, % growth, replicate 1): 21.69%; Pf_72h_%Growth_Rep2 ([1]; P. falciparum, 72 h, parasite screen 2 μg/mL, % growth, replicate 2): 38.20%; Pf_120h_%Growth_Rep1 ([2]; P. falciparum, 120 h, parasite screen 2 μg/mL, % growth, replicate 1): 72.22%; Pf_120h_%Growth_Rep2 ([2]; P. falciparum, 120 h, parasite screen 2 μg/mL, % growth, replicate 2): 22.01%; Tg_72h_%Growth_Rep1 ([3]; parasite screen 2 μg/mL, % growth, replicate 1): 3.03%; Tg_72h_%Growth_Rep2 ([3]; parasite screen 2 μg/mL, % growth, replicate 2): 2.79%
COC(=O)[C@]1(Cc2ccc(O)cc2)OC(=O)C(O)=C1c1ccc(O)cc1 [Butyrolactone II]	83.73%	86.44%	89.95%	95.11%	129.35%	92.93%							
C=C[C@]1(C)C[C@@H](O)[C@]2(C)[C@H](C)CC[C@]3(CCC(=O)[C@H]32)[C@@H](C)[C@@H]1O [BIA-M1333]													Pf_72h_%Growth_Rep1 [1, 8]: 79.79%; Pf_72h_%Growth_Rep2 [1, 9]: 96.77%; Pf_120h_%Growth_Rep1 [2, 10]: 84.29%; Pf_120h_%Growth_Rep2 [2, 11]: 105.61%; Tg_72h_%Growth_Rep1 [3, 12]: 107.76%; Tg_72h_%Growth_Rep2 [3, 13]: 90.41%
CC1=CCC2CC(CC3(CCC(C)C(C)O3)O2)OC(=O)C2C=C(C)C(O)C3OCC(=CC=CC(C)C1)C23O (stereo not shown) [BIA-M1051]													Pf_72h_%Growth_Rep1 [1, 8]: 47.24%; Pf_72h_%Growth_Rep2 [1, 9]: 1.70%; Pf_120h_%Growth_Rep1 [2, 10]: 10.36%; Pf_120h_%Growth_Rep2 [2, 11]: 24.90%; Tg_72h_%Growth_Rep1 [3, 12]: 114.92%; Tg_72h_%Growth_Rep2 [3, 13]: 98.32%
C[C@H]1C(=O)N2c3ccccc3[C@@]3(O)C[C@@H]4C(=O)N[C@](C)(c5nc6ccccc6c(=O)n54)N1[C@@H]23 [Fumiquinazoline D]							76.9%	108%	80.2%	101%	124%	109%	
COc1ccc(C[C@H]2NC[C@H](O)[C@H]2O)cc1 [Deacetylanisomycin]	64.17%	43.98%	36.01%	30.23%	5.55%	18.56%							
CCc1c(Cl)c(O)c(Cl)c(O)c1C(=O)O[C@H]1[C@H](O)[C@H](OC)[C@H](OC/C2=C\C=C\C[C@H](O)/C(C)=C/[C@H](CC)[C@@H](O[C@@H]3OC(C)(C)[C@@H](OC(=O)C(C)C)[C@H](O)[C@@H]3O)/C(C)=C/C(C)=C/C[C@@H]([C@@H](C)O)OC2=O)O[C@@H]1C [fidaxomicin, reference compound]							3.04%	-1.42%	13.8%	-3.62%	85.9%	92.4%	selectivity for P. falciparum in the screens ([1]; active against the parasite at 2 μg/mL, no anti-tumour (NS-1) or cytotoxic (fibroblast) activity at 5 μg/mL): selective for P. falciparum
CC(/C=C/[C@@]1(C)[C@H](C)CCC(=O)[C@@H]1C)=C\Cc1c(O)c(Cl)c(C)c(C=O)c1O [Ascochlorin]							79.8%	84.8%	141%	86.1%	69.4%	87.7%	

From publication PMC12396409, “Screening and hit evaluation of a microbial metabolite library against the pathogenic Plasmodium falciparum and Toxoplasma gondii parasites” (International Journal for Parasitology: Drugs and Drug …, 2025)
